Assay results taken from ChEMBL document CHEMBL1147402, “Synthesis and antitumour activity of pyrene-linked pyrrolo [2,1-c]benzodiazepine hybrids” (Bioorg Med Chem Lett, 2004).

Tests used:
Assay type in all cases: functional
Conditions in all cases: Homo sapiens, read-out: LC50 (the source's name)
[1] = test system: DU-145; assay: In vitro cytotoxicity against prostate DU-145 cell line
[2] = test system: M14; assay: In vitro cytotoxicity against melanoma M14 cell line
[3] = test system: A498; assay: In vitro cytotoxicity against […] cell line
[4] = test system: NCI-H226; assay: In vitro cytotoxicity against non-small cell lung NCI-H226 cell line
[5] = test system: HCC 2998; assay: In vitro cytotoxicity against colon […] cell line
[6] = test system: SF-539; assay: In vitro cytotoxicity against CNS SF-539 cell line
[7] = test system: SNB-19; assay: In vitro cytotoxicity against CNS SNB-19 cell line
[8] = test system: SR; assay: In vitro cytotoxicity against leukemia SR cell line

Compound `COc1cc2c(cc1OCCCC(=O)Nc1cc3cccc4ccc5cccc1c5c43)N=C[C@@H]1CCCN1C2=O` has a CC50 [1] of 240 nM, a CC50 [2] of 50 nM and a CC50 [3] of 40 nM. It also gave a CC50 [4] of under 10 nM, a CC50 [5] of 10 nM and a CC50 [6] of 180 nM. The CC50 [7] was 420 nM and the CC50 [8] was 50 nM.
